Assay results: DBAASP
Values after ≈ are worked out from the molar mass of the structure shown. Values joined by “and” are separate entries in the source; they are usually repeats but may differ in a detail not shown here. Identical values can stand only once.

Key:
Experiment in all cases: ≥ marks a high value that may be exact or a test limit, other limits are often not marked, values filed in µg/mL are converted to µM
[1] = test system: Acinetobacter baumannii MTCC 9829
[2] = test system: Alcaligenes faecalis MTCC 1937
[3] = test system: Alkalihalobacillus alcalophilus MTCC 860
[4] = test system: Bordetella bronchiseptica MTCC 6837
[5] = test system: Citrobacter freundii MTCC 1658
[6] = test system: Citrobacter koseri MTCC 1657
[7] = test system: Corynebacterium glutamicum MTCC 2679
[8] = test system: Enterococcus faecalis MTCC 439
[9] = test system: Escherichia coli K12 MG1655
[10] = test system: Haemophilus influenzae MTCC 621
[11] = test system: Klebsiella aerogenes MTCC 111
[12] = test system: Klebsiella oxytoca MTCC 2275
[13] = test system: Klebsiella pneumoniae MTCC 7407
[14] = test system: Pluralibacter gergoviae MTCC 3826
[15] = test system: Proteus mirabilis MTCC 3158
[16] = test system: Proteus vulgaris MTCC 1771
[17] = test system: Pseudomonas aeruginosa MTCC 3542
[18] = test system: Salmonella enterica MTCC 9844
[19] = test system: Salmonella enterica subsp. enterica serovar Typhimurium ATCC 14028
[20] = test system: Shigella boydii MTCC 11947
[21] = test system: Shigella flexneri MTCC 1457
[22] = test system: Staphylococcus aureus MTCC 3160
[23] = test system: Staphylococcus haemolyticus MTCC 3383
[24] = test system: Stenotrophomonas maltophilia MTCC 1890
[25] = test system: Vibrio cholerae MTCC 3904
[26] = test system: Batrachochytrium dendrobatidis
[27] = test system: Candida albicans ATCC 90028
[28] = test system: Escherichia coli ATCC 25922
[29] = test system: Staphylococcus aureus NCTC 8325
Acinetobacter baumannii = test system: Acinetobacter baumannii
Escherichia coli K88 = test system: Escherichia coli K88
Escherichia coli K99 = test system: Escherichia coli K99
Escherichia coli UB1005 = test system: Escherichia coli UB1005
Escherichia coli = test system: Escherichia coli
Klebsiella pneumoniae = test system: Klebsiella pneumoniae
[30] = test system: Pseudomonas aeruginosa ATCC 27853
[31] = test system: Pseudomonas aeruginosa CICC 21625
[32] = test system: Pseudomonas aeruginosa CICC 21630
[33] = test system: Pseudomonas aeruginosa PAO1
Pseudomonas aeruginosa = test system: Pseudomonas aeruginosa
[34] = test system: Salmonella enterica subsp. enterica serovar Pullorum C79-13
[35] = test system: Salmonella enterica subsp. enterica serovar Typhimurium C77-31

Row | Structure (SMILES) | MIC [28] [µM] | MIC [1] [µM] | MIC [2] [µM] | MIC [3] [µM] | MIC [4] [µM] | MIC [5] [µM] | MIC [6] [µM] | MIC [7] [µM] | MIC [8] [µM] | MIC [9] [µM] | MIC [10] [µM] | MIC [11] [µM] | MIC [12] [µM] | MIC [13] [µM] | MIC [14] [µM] | MIC [15] [µM] | MIC [16] [µM] | MIC [17] [µM] | MIC [18] [µM] | MIC [19] [µM] | other results
1 | CC(C)C[C@H](NC(=O)[C@H](CCCCN)NC(=O)CNC(=O)[C@H](C)NC(=O)[C@H](CCCN=C(N)N)NC(=O)[C@H](CO)NC(=O)[C@@H](N)CCC(=O)O)C(=O)N[C@@H](C)C(=O)N[C@@H](C)C(=O)N[C@@H](CCCCN)C(=O)N[C@@H](C)C(=O)N[C@@H](C)C(=O)N[C@@H](Cc1ccccc1)C(=O)N[C@@H](CCCCN)C(=O)N[C@@H](C)C(=O)N[C@@H](C)C(=O)N[C@@H](CCCCN)C(=O)N[C@@H](CCCN=C(N)N)C(=O)O [ESRAGKLAAKAAFKAAKR] |  | ≥ 68.3 | ≥ 68.3 | ≥ 68.3 | ≥ 68.3 | ≥ 68.3 | ≥ 68.3 | ≥ 68.3 | ≥ 68.3 | ≥ 68.3 | ≥ 68.3 | ≥ 68.3 | ≥ 68.3 | ≥ 68.3 | ≥ 68.3 | ≥ 68.3 | ≥ 68.3 | ≥ 68.3 | ≥ 68.3 | > 68.3 | MIC [20]: ≥ 68.3 µM; MIC [21]: ≥ 68.3 µM; MIC [22]: ≥ 68.3 µM; MIC [23]: ≥ 68.3 µM; MIC [24]: ≥ 68.3 µM; MIC [25]: ≥ 68.3 µM
2 | CC(C)C[C@H](NC(=O)[C@H](Cc1cnc[nH]1)NC(=O)[C@H](CCCN=C(N)N)NC(=O)[C@H](CC(C)C)NC(=O)[C@H](CCCN=C(N)N)NC(=O)[C@H](CCC(N)=O)NC(=O)[C@@H](NC(=O)[C@H](C)NC(=O)[C@H](CCCN=C(N)N)NC(=O)[C@H](CCCN=C(N)N)NC(=O)[C@H](C)NC(=O)[C@@H](NC(=O)[C@H](CCCN=C(N)N)NC(=O)[C@H](Cc1c[nH]c2ccccc12)NC(=O)[C@@H](N)CCC(=O)O)C(C)C)C(C)C)C(=O)N[C@@H](C)C(=O)N[C@@H](CCCN=C(N)N)C(=O)N[C@@H](CCCN=C(N)N)C(=O)N[C@@H](Cc1ccc(O)cc1)C(=O)N[C@@H](Cc1cnc[nH]1)C(=O)O [EWRVARRAVQRLRHLARRYH] |  | 6.08 (≈ 16 µg/mL) | ≥ 48.7 | 6.08 (≈ 16 µg/mL) | 0.76 (≈ 2 µg/mL) | 24.3 (≈ 64 µg/mL) | 6.08 (≈ 16 µg/mL) | 0.38 (≈ 1 µg/mL) | ≥ 48.7 | 6.08 (≈ 16 µg/mL) | 3.04 (≈ 8 µg/mL) | ≥ 48.7 | 3.04 (≈ 8 µg/mL) | ≥ 48.7 | ≥ 48.7 | ≥ 48.7 | ≥ 48.7 | ≥ 48.7 | 6.08 (≈ 16 µg/mL) | 6.08 (≈ 16 µg/mL) | MIC [20]: 3.04 µM (≈ 8 µg/mL); MIC [21]: 0.38 µM (≈ 1 µg/mL); MIC [22]: ≥ 48.7 µM; MIC [23]: 6.08 µM (≈ 16 µg/mL); MIC [24]: 24.3 µM (≈ 64 µg/mL); MIC [25]: ≥ 48.7 µM

More lines, main results first:

Row | MIC [28] [µM] | Structure (SMILES) | MIC [1] [µM] | MIC [2] [µM] | MIC [3] [µM] | MIC [4] [µM] | MIC [5] [µM] | MIC [6] [µM] | MIC [7] [µM] | MIC [8] [µM] | MIC [9] [µM] | MIC [10] [µM] | MIC [11] [µM] | MIC [12] [µM] | MIC [13] [µM] | MIC [14] [µM] | MIC [15] [µM] | MIC [16] [µM] | MIC [17] [µM] | MIC [18] [µM] | MIC [19] [µM] | other results
3 | 140 (≈ 196 µg/mL) | CC[C@H](C)[C@H](NC(=O)[C@H](CC(C)C)NC(=O)[C@@H]1CCCN1C(=O)[C@H](CC(C)C)NC(=O)[C@@H](N)Cc1ccccc1)C(=O)NCC(=O)N[C@@H](CCCCN)C(=O)N[C@H](C(=O)N[C@@H](CC(C)C)C(=O)NCC(=O)N[C@H](C(=O)N[C@H](C(=O)N[C@@H](CC(C)C)C(N)=O)[C@@H](C)CC)[C@@H](C)O)[C@@H](C)CC [FLPLIGKILGTIL] |  |  |  |  |  |  |  |  |  |  |  |  |  |  |  |  |  |  |  | MIC [26]: ≥ 50 µM and 25 µM; MIC [27]: ≥ 150 µM; MIC [29]: 5 µM (≈ 6.98 µg/mL)
4 | 2 (≈ 4.55 µg/mL) | CC(C)C[C@H](NC(=O)[C@@H]1CCCN1C(=O)[C@H](CCCCN)NC(=O)[C@H](CC(C)C)NC(=O)[C@H](CC(C)C)NC(=O)[C@@H]1CCCN1C(=O)[C@H](CCCCN)NC(=O)[C@H](CC(C)C)NC(=O)[C@H](CC(C)C)NC(=O)[C@@H]1CCCN1C(=O)[C@H](CCCCN)NC(=O)[C@H](CC(C)C)NC(=O)[C@H](CC(C)C)NC(=O)[C@@H]1CCCN1C(=O)[C@H](CCCCN)NC(=O)[C@H](CC(C)C)NC(=O)[C@H](CC(C)C)NC(=O)[C@@H]1CCCN1C(=O)[C@H](CCCCN)NC(=O)[C@@H](N)CC(C)C)C(N)=O [LKPLLKPLLKPLLKPLLKPL] |  |  |  |  |  |  |  |  |  |  |  |  |  |  |  |  |  |  | 8 (≈ 18.2 µg/mL) | MIC (Acinetobacter baumannii): 4 µM (≈ 9.1 µg/mL); MIC (Escherichia coli K88): 2 µM (≈ 4.55 µg/mL); MIC (Escherichia coli K99): 2 µM (≈ 4.55 µg/mL); MIC (Escherichia coli UB1005): 2 µM (≈ 4.55 µg/mL); MIC (Escherichia coli): 4 µM (≈ 9.1 µg/mL); MIC (Klebsiella pneumoniae): 32 µM (≈ 72.8 µg/mL); MIC [30]: 16 µM (≈ 36.4 µg/mL); MIC [31]: ≥ 64 µM; MIC [32]: ≥ 32 µM; MIC [33]: > 64 µM; MIC (Pseudomonas aeruginosa): 32 µM (≈ 72.8 µg/mL); MIC [34]: 4 µM (≈ 9.1 µg/mL); MIC [35]: 16 µM (≈ 36.4 µg/mL)
5 | 13 (≈ 38.3 µg/mL) | CC[C@H](C)[C@@H]1NC(=O)[C@H](CCCCN)NC(=O)[C@@H](NC(=O)[C@H](CCCCN)NC(=O)[C@H](CC(C)C)NC(=O)[C@H](CCCCN)NC(=O)[C@H](CC(=O)O)NC(=O)[C@H](CC(C)C)NC(=O)[C@H](CCSC)NC(=O)[C@H](Cc2cnc[nH]2)NC(=O)CNC(=O)[C@H](C)NC(=O)[C@H](CC(C)C)NC(=O)[C@H](CC(N)=O)NC(=O)[C@H](CCCCN)NC(=O)[C@H](C)NC(=O)[C@@H](NC(=O)[C@H](CC(N)=O)NC(=O)[C@H](CCCCN)NC(=O)[C@@H](NC(=O)[C@@H](NC(=O)[C@H](CC(=O)O)NC(=O)[C@H](CCSC)NC(=O)[C@@H](N)CC(C)C)[C@@H](C)O)C(C)C)C(C)C)CSSC[C@@H](C(=O)O)NC(=O)CNC(=O)[C@H]([C@@H](C)O)NC1=O [LMDTVKNVAKNLAGHMLDKLKCKITGC] |  |  |  |  |  |  |  |  |  |  |  |  |  |  |  |  |  |  |  | MIC [26]: ≥ 100 µM; MIC [27]: ≥ 67 µM; MIC [29]: ≥ 50 µM
